In the NIST ThermoML archive (doi:10.1021/acs.jced.5b00606):

Assays:
[1] = for vapor or sublimation pressure: Liquid, Transpiration method
[2] = Molar enthalpy of transition or fusion; settings: Crystal; Drop ice or diphenyl ether calorimetry

c1cn2ccnc2cn1 [imidazo[1,2-a]pyrazine]
[1]
Settings | vapor or sublimation pressure [kPa]
369.6 K | 0.1641
373.8 K | 0.2038
379 K | 0.2643
383 K | 0.34
385.2 K | 0.373
388.2 K | 0.4381
390.2 K | 0.4952
393.4 K | 0.5831

Settings | Triple point temperature [K]
[1], Crystal, DTA | 359.2

Settings | Molar enthalpy of transition or fusion [kcal/mol]
[2] | 3.66
